Test results from the METLIN SMRT retention time set (Domingo-Almenara et al. 2019).

Assay: gradient 5% acetonitrile 3 min, to 50% in 2 min, to 85% in 15 min, held 3 min, 100 µL/min
Details: column: Zorbax Extend-C18 2.1 x 50 mm; eluents: water / acetonitrile, 0.1% formic acid
Outline: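 Pure standards were run in mixtures of ~100 molecules by HPLC coupled to a quadrupole time-of-flight mass spectrometer. The column was a Zorbax Extend-C18 (2.1 × 50 mm, 1.8 μm) at 100 μL/min, with water and acetonitrile each containing 0.1% formic acid, in positive and negative ionization mode. Dead and dwell volumes were 40 μL and 900 μL. Retention time was taken from computationally picked adduct peaks, each manually inspected, with data collected over 3 months.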

Compound	RP-LC retention time [s]
Clc1cccc(-c2ccc(CNCc3ccco3)o2)c1	837
O=C(O)/C=C/c1ccc(Cn2ccnc2)cc1	612
N#Cc1nc(-c2ccc(COc3ccc(Cl)cc3)o2)oc1NCCCn1ccnc1	627
Cc1ccc(F)cc1NS(=O)(=O)c1cc2c(s1)CCN(C(=O)C1CCC1)C2	877
CCc1ccc(NC(=O)c2cn(CC)nc2S(=O)(=O)N2CCSCC2)cc1	1100
CC(C)n1cc(S(=O)(=O)Nc2ccc(F)cc2)c2cccnc21	869
CCOC(=O)C(C)Sc1ccc(NC(=O)c2ccco2)nn1 (configuration not stated)	759
CN(C)S(=O)(=O)c1ccc2c(c1)N(CC(=O)NCCc1cccs1)C(=O)C1CCCCN21 (configuration not stated)	876
Cc1nc(-c2csc(S(=O)(=O)N3CCCC(C(=O)Nc4ccc(F)cc4C)C3)c2)no1 (configuration not stated)	892
CSc1ccc(-c2noc(Cn3c(=O)n(-c4ccccc4F)c(=O)c4sccc43)n2)cc1	1040
CC(=O)NC(Cc1c[nH]c2ccccc12)C(=O)O (configuration not stated)	605
Cc1nc2c(C(=O)NCCN3CCOCC3)cnn2c(C)c1Cc1ccccc1Cl	678
N#Cc1ccccc1NC(=O)NCC1CN(c2ccc3c(c2)OCO3)C(=O)O1 (configuration not stated)	690
Cc1noc(C)c1-c1ccc(S(=O)(=O)N2CC=C(c3ccccc3)CC2)cc1	1110
Cc1cnc(C(=O)N2CC(c3nc(CCOCC4CC4)no3)C2)cn1	706
COCCOC(=O)C1=C(C)NC2=C(C(=O)C(C(=O)OC)C(C)C2)C1c1ccccc1F (configuration not stated)	806
COc1ccccc1-c1nc(Cn2nnc(-c3nc(-c4ccc(Cl)cc4)no3)c2C)c(C)o1	1220
Cc1ccc(CN2C[C@@H]3C(=O)N(CCc4ccccc4)C(=O)[C@@H]3C2)o1	719
COc1ccc(NS(=O)(=O)c2cc(-c3cc(C(F)(F)F)on3)sc2C)c(OC)c1	1130
O=C(Cc1nnc2cc(-c3nc(C4CC4)no3)ccn12)NCc1ccc(Cl)cc1	798
COc1ccc(S(=O)(=O)CCC(=O)N2CCCC2c2nc(-c3ccc(Cl)cc3)no2)cc1 (configuration not stated)	1000

Compound	RP-LC retention time [s]
CCOC(=O)c1cnc2nc(C)ccc2c1Nc1cccc(Cl)c1	752
NC(=O)C1CCN(C2CC(=O)N(Cc3ccccc3)C2=O)CC1 (configuration not stated)	579
CC(C)c1nc2c(N)cccn2n1	613
Cc1oc(-c2[nH]ncc2C(=O)N2CCCC2)cc1S(=O)(=O)Nc1ccccc1	685
Cc1ccc(CNC(=O)c2ccc3c(c2)CCN3C(=O)C2CC2)cc1	824
O=c1c(S(=O)(=O)N2CCCC2)cccn1Cc1cccc(Cl)c1	902
CC(NC(=O)Cn1cnc(-c2noc(-c3cccnc3)n2)c1)c1ccccc1 (configuration not stated)	823
Cc1ccn2c(NC(=O)c3ccc4ccccc4c3)c(-c3ccc(F)cc3)nc2c1	765
CCCCN1CCC(N(C(=O)NCCc2ccccc2)C2CCOCC2)CC1	671
CCNC(=O)c1nn(-c2ccc(F)cc2)c(OC)cc1=O	645
O=C([C@@H]1C[C@H](Oc2ccccc2)CN1C(=O)C1CC=CC1)N1CCCC1	759
COc1ccccc1CNC(=O)c1cc(C)nn1-c1ccccc1	809
C=Cc1ccc(Cn2ccn(-c3cccc(Cl)c3C)c(=O)c2=O)cc1	843
O=C(NC1CCCC1)NC1CCN(C(=O)C2CC2)C1 (configuration not stated)	631
COc1cccc(-c2noc(Cn3nc(-c4ccc5c(c4)OCO5)ccc3=O)n2)c1	957
CN(C)C(=O)c1ccc2c(c1)CCN2C(=O)C1CCC1	700
COc1ccccc1-c1nc2nccc(-c3ccc4c(c3)OCCCO4)n2n1	888
CCC(=O)N(C1CCOCC1)C1CCN(S(=O)(=O)c2ccccc2Cl)CC1	840
COc1ccc2c(c1)C1(CCN(S(=O)(=O)c3ccc(Br)cc3)C1)C(=O)N2C (configuration not stated)	986
Cc1csc(C(=O)NC2CNC(=O)C2)c1 (configuration not stated)	572
O=S(=O)(c1ccccc1F)N1CCc2nc(-c3ccccc3)ncc2C1	1010

The next lines start with the values.

RP-LC retention time [s]	Compound
769	COC(=O)c1ccc(-c2nc3cnccn3c2Nc2ccc(OC)c(OC)c2)cc1
804	COc1ccc(CC(=O)Nc2ccc3c(c2)Sc2ncccc2C(=O)N3C)c(Cl)c1
760	CC(=O)c1cccc(NC(=O)C2CC(=O)N(c3ccc4c(c3)CCN4C(=O)C3CCC3)C2)c1 (configuration not stated)
658	Cc1ccc(NC(=O)Cn2c(N3CCOCC3)nc(C)cc2=O)c(C)c1
670	CN1CCCN(c2ccc(NC(=O)c3ccc(Br)cc3)c(C(=O)O)c2)CC1
892	CCc1noc(-c2nc(-c3cc(OC)c(OC)c(OC)c3)no2)n1
653	CCC(=O)N1CCc2cc(-c3ccc(C(=O)N4CCN(c5ccccn5)CC4)cc3)ccc21
576	COc1cc(NC(=O)N2CCC(CC(=O)N3CCN(c4ccccn4)CC3)CC2)cc(OC)c1OC
879	Cc1ccc(C)c(CN2CCn3c(nn(CC4CC4)c3=O)C2)c1
712	COc1cccc(-c2nc(NCC3CCCO3)ncc2C(=O)O)c1 (configuration not stated)
582	CCC(=O)N1CCc2sc(C(=O)N3CCN(c4ccccn4)CC3)cc2C1
601	O=C(NCC1CCN(C(=O)c2cc3ccccc3o2)CC1)C(=O)Nc1cccnc1
973	COc1ccc([N+](=O)[O-])cc1NC(=O)c1cnc(N2CCN(c3ncccn3)CC2)c2ccccc12
850	O=C(COc1ccccc1)N1CCN(C(=O)c2nnn3c2COC(c2ccccc2)C3)CC1 (configuration not stated)
907	CCc1onc(C)c1C1CCCN1C(=O)Nc1ccccc1Cl (configuration not stated)
1130	O=C(NC1CCCC1)C1CCN(c2ncccc2-c2nc(-c3ccc(Cl)cc3)no2)CC1
722	COCCNc1c(-c2ccccc2)nc2sc(C(=O)N3CCOCC3)c(C)n12
728	CCCNC(=O)C1CCCN(c2nc3ncn(CC(=O)Nc4c(C)cc(C)cc4C)c(=O)c3s2)C1 (configuration not stated)
1300	COc1ccc(-n2c(=O)c(C(=O)NC3CCCCC3)c(O)c3cccnc32)cc1
797	COc1ccc(Br)cc1CNC(=O)C1CCN(c2ccc3nnc(C)n3n2)CC1
746	COCCn1cc(CC(=O)NC2CCCCCC2)c2cccnc21
997	C=CCN1N=C(C(=O)N2CCC(C)CC2)S(=O)(=O)c2ccc(Cl)cc21
945	O=C(c1ccc(Br)cc1)N1CCN(c2cc(-c3ccc(Cl)cc3)[nH]n2)CC1
577	O=C(NCc1ccc(N2CCCCC2)cc1)c1cn2c(n1)CSCC2
680	CCN1CCCCc2cc(C(=O)NCCC3CCN(C(C)C)CC3)sc21
